A melting point compilation (Tetko et al.; mined from patent text by program, amines drawn as free bases though some values may be those of a salt)

melting point | Structure (SMILES)
223 to 224 °C | COc1ccc2c(c1)C(c1ccccc1)N(S(C)(=O)=O)N=C2Cc1c(Cl)cncc1Cl (centres undefined)
186 to 187 °C | Clc1cccc(CN(c2ncnc3[nH]ncc23)C2CCCC2)c1
102 to 104 °C | Cc1ccc(F)cc1C(=O)Nc1ccc(C(=O)N2Cc3ccccc3Nc3ncccc32)cn1
148 to 150 °C | CCCCc1nc(Cl)c(COC)n1Cc1ccc(-c2ccccc2NS(=O)(=O)C(F)(F)F)cc1
128 °C | NS(=O)(=O)c1ccc(-c2cc(-c3c[nH]nc3-c3ccccn3)ccc2F)cc1
119 to 121 °C | C[C@H](NC(=O)C12CC3CC(CC(C3)C1)C2)C(=O)N1CCC[C@H]1C(=O)Nc1ccccc1
188 to 190 °C | COC(=O)Nc1cc(OS(=O)(=O)c2ccc(C)cc2)nc(N)n1
265 °C | O=C(NN=Cc1c(O)ccc2ccccc12)c1ccccc1O
78 °C | CCCCc1nc(Cl)c(CC(=O)OCC)c(Cc2ccc(C(=O)OC)cc2)n1
186 to 191 °C | O=C(Nc1ccccc1C(=O)O)c1cccc(OC(F)F)c1
192 to 194 °C | CN1CCC(CCCC2CCN(CC(=O)N3c4ccccc4C(=O)Nc4cccnc43)CC2)CC1
211 to 214 °C | O=C(O)CNC1Cc2ccccc2C1
51 to 52 °C | CCCOc1cc2c(cc1C=O)C(C)(C)CCC2(C)C
156 to 157 °C | Cc1ccccc1Cc1ccc(=O)[nH]n1
217 to 219 °C | N#CCCNC(=O)c1cccc(-c2cccn3c(=O)n(Cc4cccc(C(F)(F)F)c4)nc23)c1
112 to 115 °C | COc1nccc2c1ccn2-c1ccc(C(F)(F)F)cc1Cl
205 to 208 °C | CC(=O)OC1CCC2(C)C(=CCC3C4=CCC(C(C)=O)C4(C)CCC32)C1 (centres undefined)
129 to 130 °C | COc1ccc2c(c1)[C@@H]1c3ccccc3N[C@@H]1C2 (relative stereo)
131 to 133 °C | c1cnc2ccc(Cn3nnc4ccc(-c5ccc6c(c5)CCO6)nc43)cc2c1
144 to 146 °C | OC(c1ccccc1)(c1cc2ccccc2s1)C1CCN(CCc2ccccc2)CC1 (centres undefined)
158 to 159 °C | Cc1oc(-c2ccccc2)nc1CCOc1ccc(CC(C)(C(=O)O)n2ccc(Br)c2)cc1 (centres undefined)
167 to 168 °C | COC(=O)[C@@H](Cc1ccccc1)Oc1c(Br)cc(-c2c3ccccc3c(Br)c3sc(C)c(C)c23)cc1C1CCCC1
216 to 218 °C | CC1=CC(c2cccc(F)c2)C2=C(CCCC2=O)N1 (centres undefined)
94 to 98 °C | NS(=O)(=O)CCC(O)COCc1ccccc1 (centres undefined)

melting point | Structure (SMILES)
78 to 79 °C | C(=Cc1nc2ccccc2o1)c1ccccc1
185 °C | O=[N+]([O-])c1ccccc1SC1SCC(O)C(O)C1O (centres undefined)
196 to 200 °C | CC12C=CC(=O)C=C1C(F)CC1C2=CCC2(C)C(C(=O)CCl)=CCC12 (centres undefined)
100 to 101 °C | COc1cccc(CC(=O)O)c1OCCCc1ccc(OC(C)C)cc1Oc1ncc(C(F)(F)F)cc1Cl
207 to 212 °C | Nc1c(NCCCOc2cccc(CO)c2)c(=O)c1=O
156 to 159 °C | OCc1cc(I)cc(I)c1I
123 to 126 °C | COc1ccc(NC(=O)C(C)(C)c2ccc(S(=O)(=O)/C=C/C#N)cc2)cc1
162 to 165 °C | CCOC(=O)/C=C/c1cc(-n2ncnn2)cc(C)c1N
125 to 126 °C | CN(C)c1ccc(S(=O)c2ccccc2)cc1[N+](=O)[O-] (centres undefined)
161 to 162 °C | COc1ccc2c(c1)C(NCCCCc1ncc(Br)cc1C)=NS2(=O)=O
109 °C | C#CCCCOC(=O)NC(=O)C(c1ccccc1)c1ccccc1
113 to 114 °C | CC(C)c1nn(-c2ccc(C(F)(F)F)cn2)cc1CCCCOc1cc(CCC(=O)O)n(C)n1
166 to 168 °C | Clc1nc2ccccc2n2cnc(-c3nc(C4CC4)no3)c12
193 °C | Nc1nc2cccnc2n1Cc1ccco1
235 to 238 °C | CCc1oc2ccccc2c1C(=O)NCc1ccc2c(Br)c(OCc3nnn[nH]3)ccc2c1
165 to 166 °C | CCc1cc(OCc2ccc(-c3ccccc3-c3nnnn3-c3ccc(C#N)cc3)cc2)c2ccccc2n1
154 to 155 °C | Cc1nc(-n2cnn(CCOc3ccc(F)cc3)c2=O)sc1C(=O)NCc1cccnc1
143 to 144 °C | CCCCCCCCCCCCOc1cccc2c(OCC(O)CO)cccc12 (centres undefined)
44.5 to 45.5 °C | C=C(OCc1ccccc1)C(=O)OC
192 to 193 °C | O=C(Nc1ccc(-n2nc(C(F)(F)F)cc2C(F)(F)F)cc1)c1cccc(I)c1
78 to 80 °C | O=C(O)CCCOc1ccc(CNC(=O)C2Cc3ccccc3N2S(=O)(=O)c2ccc(-c3cccc(C(F)(F)F)c3)cc2)cc1 (centres undefined)
72 to 75 °C | CC(C)c1cc(-c2ccc(F)cc2)c(C=O)c(C(C)C)n1
275 to 276 °C | CCNc1ccc(-c2c(N)nc(N)nc2CC)cc1[N+](=O)[O-]
54 to 55 °C | CCOC(=O)C(Cc1ccccc1)=NO

melting point | Structure (SMILES)
140 °C | COc1cc(OC)c(OC)cc1C=CC=O
201 to 203 °C | CC1(c2cccc(OCc3ccccc3)c2)C(=O)Nc2cc(Cl)cc(Cl)c2C1=O (centres undefined)
271 to 273 °C | CC(C)(C)c1ccc2c(c1)cc(-c1ccccc1)n2-c1ccc(O)c(C(=O)O)c1
206 to 208 °C | COc1cc2oc3ccc(C#N)cc3c2cc1F
174 °C | Clc1nc(N2CCOCC2)nc(N2CCOCC2)n1
215 °C | Cc1nc(N)nc(N)c1CCCc1cc(Cl)c(Cl)cc1Cl
127 to 128 °C | CCCOc1cc(-c2c(C(=O)OCC)c(Cn3cncn3)nc3cc(OC)c(OC)cc23)ccc1OC
131 to 133 °C | COC(=O)CCCC#Cc1cc(Cl)ccc1NS(=O)(=O)c1ccc2c(c1)OCCN2C
178 to 180 °C | O=C(Cc1cccc(OC(F)(F)F)c1)NCc1cccc2c1C(=O)N(C1CCC(=O)NC1=O)C2=O (centres undefined)
161 °C | CCN(CC)C(=O)c1c(O)cc(C(F)(F)F)cc1-c1ccc(OC)c(OC)c1
92 to 104 °C | COc1c(Nc2ncc(Cl)c(Nc3ccccc3S(=O)(=O)N(C)C)n2)ccc2c1CC(N1CCOCC1)CCC2 (centres undefined)
102 to 104 °C | Cn1ccn(CO)c1=O
168 to 170 °C | CCCc1nc(C(C)(C)O)c(C(=O)OC2OC(=O)c3ccccc32)n1Cc1ccc(-c2ccccc2-c2nnn[nH]2)cc1 (centres undefined)
164 to 166 °C | CCOC(=O)c1c(N)[nH]c2cc(OC)c(OC)cc12
53 to 54 °C | CC1(C)COC(c2cc(F)c(F)cc2F)=N1
247 to 251 °C | O=c1c2c(Cc3ccsc3)n[nH]c2c2cccnc2n1-c1cccc(OC(F)(F)F)c1
102 to 103 °C | OC(=S)C=Cc1cccc2ccccc12
189 to 191 °C | O=S1(=O)N=CN(C2CCCCC2)c2cc(Cl)ccc21
167 to 168 °C | N#CSc1sc(NC(=O)c2cccc(C(F)(F)F)c2)nc1C(F)(F)F
85 to 86 °C | COc1ccnc(N2CCN(C(=O)c3ccco3)CC2)n1
142 °C | CC(C(=O)Cl)c1ccc2c(c1)CCc1ccccc1C2=O (centres undefined)
197 to 203 °C | Cn1cnc(N2CCc3ccccc3CC2)c(C#N)c1=O
> 300 °C | Cc1nc(S)c2[nH]cnc2n1
97 to 98.5 °C | COc1ccccc1-c1cc(=O)c2ccccc2o1

melting point | Structure (SMILES)
178 to 180 °C | CCOC(=O)C1C=NC(C)=C(c2ccccc2)C1=O (centres undefined)
108 to 110 °C | C=CCCN1C(C)=C(C(=O)OC)C(c2ccccc2)C(C(=O)OC)=C1C
70 °C | O=C(O)CCOc1ccc(CCNC(=O)C2Cc3ccccc3N2S(=O)(=O)c2ccc(-c3cccc(C(F)(F)F)c3)cc2)cc1 (centres undefined)
230 °C | O=C1c2ccccc2C(=O)N1CC(=O)N(CC(=O)N1CCc2ccccc21)c1ccccc1
218 to 220 °C | CN(C)Cc1cccc(-c2cc3c(Nc4ccc(F)c(Cl)c4)ncnc3[nH]2)c1
131 to 134 °C | Cc1c(Sc2cccnn2)oc2ccc(Cl)cc12
177 °C | CC(C)(C)OC(=O)n1cccc1-c1ccc2c(c1)C1(CCCCC1)C(=O)N2
230 to 232 °C | Cn1nc(-c2ccc(C(F)(F)F)cc2)cc1C(=O)O
164 to 167 °C | O=C(NCc1cccnc1)c1ccc2n1Cc1ccccc1N(C(=O)c1ccc(-c3ccccc3Cc3nnn[nH]3)cc1)C2
75 to 77 °C | CCN(CC)c1ccc(C=O)c([N+](=O)[O-])c1
231 to 233 °C | CC(=O)OC1CCC2(C)C(=CCC3C2C(OC(C)=O)CC2(C)C3CCC2(O)C(=O)CO)C1 (centres undefined)
135 to 137 °C | COc1ccc(-c2cc(=O)n(CCC(=O)NCc3ccccc3)nc2-c2ccc(OC)cc2)cc1
225 °C | COc1ccc(C=CC(=O)c2ccc(O)c(CC(=O)O)c2)cc1OC
120 °C | Cc1ccccc1-c1nccc2c(CC#N)cccc12
134 to 136 °C | COCc1cn(Cc2ccccc2)c(=O)[nH]c1=O
260 to 262 °C | CCOC(=O)c1c(-c2ccc(N)cc2)c(C#N)c(=O)n2ccccc12
208 to 210 °C | COc1ccc2c(Nc3ccc(Cl)cc3F)c(C#N)cnc2c1
104 to 105 °C | OCc1cn(Cc2ccc(Cl)cc2)nc1CN1CCC(c2ccccc2)(c2ccccc2)CC1
125 to 127 °C | CC(=O)OC1CCCc2cnc3ccc(OCc4ccccc4[N+](=O)[O-])cc3c21 (centres undefined)
214 °C | Cc1[nH]c(=S)n(Nc2cccc([N+](=O)[O-])c2)c1-c1ccccc1
151 to 153 °C | COc1ccc2c(c1)N(C1=CCCN1C1=NCCC1)c1ccccc1S2
113 to 114 °C | C=C1CCC(C(=O)OC)Cc2onc(-c3ccc(Cl)cc3)c21 (centres undefined)

Structure (SMILES) | melting point
OC(c1ccncc1)(c1ccc(F)c(F)c1)c1ccc(F)c(F)c1 | 147 to 149 °C
CN(C)C(=O)Oc1ccc(CCl)cc1 | 68 °C
N#Cc1c(Cl)c(Cl)c(NCCN)c(Cl)c1Cl | 140 to 144 °C
C[C@@H]1C(=O)C[C@H]2C[C@@H]1OO[C@@]2(C)/C=C\c1ccc(Cl)cc1 | 90 °C
Clc1ccc(C23CCN(CC2)C3)cn1 | 70 to 72 °C
